Earlier results on one compound are cited in PMC6219411 (Drug Design, Development and Therapy, 2018).

The conditions of this series: oral preparation.

On to `CC(C)(C#N)c1cc(Cn2cncn2)cc(C(C)(C)C#N)c1` [anastrozole, Anastrozole], for which the mean elimination half-life is recorded as 40 to 50 h and the “time to maximum plasma concentrations” value is no more than 2 h.
